{"source": "ChEMBL document CHEMBL6153141", "about": "“Design, Synthesis, and Mechanism Study of Novel BMX Inhibitors Based on the Core of 1,3,5-Triazin-2-Amine for the Treatment of Gastric Carcinoma” (J Med Chem, 2025)", "key": {"PC-9": {"tested_on": "PC-9", "test": "cells", "conditions": "Homo sapiens, PC-9, 72 h", "description": "Anticancer activity against human PC-9 cells assessed as inhibition of cell proliferation incubated for 72 hrs by MTT assay"}, "HONE1 cell line": {"tested_on": "HONE1 cell line", "test": "Anticancer activity against human HONE1 cell line assessed as inhibition of cell proliferation incubated for 72 hrs by MTT assay", "format": "functional, cell-based", "conditions": "HONE1, 72 h"}, "MGC-803 [1]": {"tested_on": "MGC-803", "test": "cells", "conditions": "Homo sapiens, MGC-803, 48 h", "description": "Antiproliferative activity against human MGC-803 cells assessed as inhibition of cell viability incubated for 48 hrs by MTT assay"}, "MGC-803 [2]": {"tested_on": "MGC-803", "test": "Induction of autophagy in human MGC-803 cells assessed as decrease in p62 protein expression incubated for 48 hrs by Western blot analysis", "format": "functional, cell-based", "conditions": "dose 10-20 µM"}, "NCI-H1975": {"tested_on": "NCI-H1975", "test": "cells", "conditions": "Homo sapiens, NCI-H1975, 72 h", "description": "Anticancer activity against human NCI-H1975 cells assessed as inhibition of cell proliferation incubated for 72 hrs by MTT assay"}, "HCC827": {"tested_on": "HCC827", "test": "cells", "conditions": "Homo sapiens, HCC827, 72 h", "description": "Anticancer activity against human HCC827 cells assessed as inhibition of cell proliferation incubated for 72 hrs by MTT assay"}, "MGC-803 [3]": {"tested_on": "MGC-803", "test": "Inhibition of AKT-mTOR signaling in human […] cells assessed as decrease in phosphorylated AKT expression at 10 to 20 uM incubated for 48 hrs by Western blot analysis", "format": "cell-based", "conditions": "dose 10-20 µM"}, "[4]": {"molecular_target": "Epidermal growth factor receptor (Homo sapiens, UniProt P00533, T790M)", "sequence (P00533 25-1210 T790M limits assumed)": "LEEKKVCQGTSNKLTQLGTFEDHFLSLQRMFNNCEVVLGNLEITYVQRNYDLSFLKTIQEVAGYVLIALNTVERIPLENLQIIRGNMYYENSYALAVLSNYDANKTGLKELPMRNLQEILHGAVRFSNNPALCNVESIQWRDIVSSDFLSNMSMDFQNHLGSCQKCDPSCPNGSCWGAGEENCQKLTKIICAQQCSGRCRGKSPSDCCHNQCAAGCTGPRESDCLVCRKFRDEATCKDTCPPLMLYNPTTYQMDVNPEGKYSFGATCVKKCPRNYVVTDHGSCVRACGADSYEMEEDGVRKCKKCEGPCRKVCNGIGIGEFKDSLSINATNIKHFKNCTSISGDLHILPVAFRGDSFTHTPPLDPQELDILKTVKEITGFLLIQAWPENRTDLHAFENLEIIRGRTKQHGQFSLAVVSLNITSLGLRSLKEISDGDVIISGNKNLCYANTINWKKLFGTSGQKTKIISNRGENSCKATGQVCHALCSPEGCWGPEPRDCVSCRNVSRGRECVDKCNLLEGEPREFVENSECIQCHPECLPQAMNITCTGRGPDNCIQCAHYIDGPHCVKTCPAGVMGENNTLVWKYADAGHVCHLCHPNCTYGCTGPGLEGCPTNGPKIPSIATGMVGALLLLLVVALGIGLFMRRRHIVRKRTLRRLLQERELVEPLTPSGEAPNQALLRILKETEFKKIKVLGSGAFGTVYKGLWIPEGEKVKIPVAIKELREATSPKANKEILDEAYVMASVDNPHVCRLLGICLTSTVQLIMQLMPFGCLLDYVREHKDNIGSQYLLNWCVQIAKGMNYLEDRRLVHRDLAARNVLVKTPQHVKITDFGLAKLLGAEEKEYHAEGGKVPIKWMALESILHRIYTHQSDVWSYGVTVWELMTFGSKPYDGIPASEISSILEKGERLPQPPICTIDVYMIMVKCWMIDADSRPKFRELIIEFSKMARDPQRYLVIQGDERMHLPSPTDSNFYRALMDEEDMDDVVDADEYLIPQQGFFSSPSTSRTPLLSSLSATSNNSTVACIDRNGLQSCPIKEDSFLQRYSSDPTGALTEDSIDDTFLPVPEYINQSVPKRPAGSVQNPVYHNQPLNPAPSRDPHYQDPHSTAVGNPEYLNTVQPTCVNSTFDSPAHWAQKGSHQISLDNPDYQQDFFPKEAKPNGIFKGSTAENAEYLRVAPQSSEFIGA", "test": "Inhibition of EGFR T790M (unknown origin) in presence of ATP at Km concentration"}, "[5]": {"molecular_target": "Tyrosine-protein kinase BTK (Homo sapiens, UniProt Q06187)", "sequence (Q06187 whole entry)": "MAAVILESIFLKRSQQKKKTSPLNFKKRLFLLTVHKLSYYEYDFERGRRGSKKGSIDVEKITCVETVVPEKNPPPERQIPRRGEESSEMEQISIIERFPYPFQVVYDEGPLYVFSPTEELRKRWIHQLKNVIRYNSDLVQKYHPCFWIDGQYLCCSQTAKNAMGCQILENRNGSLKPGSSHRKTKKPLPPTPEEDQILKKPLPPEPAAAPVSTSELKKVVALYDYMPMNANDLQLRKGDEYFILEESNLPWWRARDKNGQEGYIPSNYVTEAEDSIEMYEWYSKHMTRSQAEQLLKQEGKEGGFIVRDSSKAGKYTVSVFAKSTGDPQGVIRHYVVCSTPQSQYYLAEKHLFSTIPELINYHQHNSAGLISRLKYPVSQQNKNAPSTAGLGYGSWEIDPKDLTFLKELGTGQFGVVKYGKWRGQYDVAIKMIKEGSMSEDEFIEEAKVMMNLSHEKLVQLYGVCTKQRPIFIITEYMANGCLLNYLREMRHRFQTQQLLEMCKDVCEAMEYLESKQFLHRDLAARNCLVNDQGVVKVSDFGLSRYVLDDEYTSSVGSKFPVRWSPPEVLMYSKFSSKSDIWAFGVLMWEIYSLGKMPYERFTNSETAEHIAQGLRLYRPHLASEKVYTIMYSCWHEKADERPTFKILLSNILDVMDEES", "test": "Inhibition of BTK (unknown origin) in presence of ATP at Km concentration"}, "MGC-803 [6]": {"tested_on": "MGC-803", "test": "Downregulation of BMX protein expression in human MGC-803 cells incubated for 48 hrs by Western blot analysis", "format": "functional, cell-based", "conditions": "dose 10-20 µM"}, "MGC-803 [7]": {"tested_on": "MGC-803", "test": "Induction of apoptosis in human MGC-803 cells assessed as increase in cleaved caspase 3 level incubated for 48 hrs by Western blot analysis", "format": "functional, cell-based", "conditions": "dose 10-20 µM"}, "MGC-803 [8]": {"tested_on": "MGC-803", "test": "Induction of apoptosis in LC3B knockout human MGC-803 cells assessed as increase in cleaved PARP level at 20 uM by Western blot analysis", "format": "functional, cell-based"}, "C6661": {"tested_on": "C6661", "test": "Anticancer activity against human C666-1 cells assessed as inhibition of cell proliferation incubated for 72 hrs by MTT assay", "format": "functional, cell-based", "conditions": "C6661, 72 h"}, "[9]": {"molecular_target": "Tyrosine-protein kinase ITK/TSK (Homo sapiens, UniProt Q08881)", "test": "Inhibition of ITK (unknown origin) in presence of ATP at Km concentration"}, "Cytochrome P450 2C9": {"molecular_target": "Cytochrome P450 2C9 (Homo sapiens, UniProt P11712)", "sequence (P11712 whole entry)": "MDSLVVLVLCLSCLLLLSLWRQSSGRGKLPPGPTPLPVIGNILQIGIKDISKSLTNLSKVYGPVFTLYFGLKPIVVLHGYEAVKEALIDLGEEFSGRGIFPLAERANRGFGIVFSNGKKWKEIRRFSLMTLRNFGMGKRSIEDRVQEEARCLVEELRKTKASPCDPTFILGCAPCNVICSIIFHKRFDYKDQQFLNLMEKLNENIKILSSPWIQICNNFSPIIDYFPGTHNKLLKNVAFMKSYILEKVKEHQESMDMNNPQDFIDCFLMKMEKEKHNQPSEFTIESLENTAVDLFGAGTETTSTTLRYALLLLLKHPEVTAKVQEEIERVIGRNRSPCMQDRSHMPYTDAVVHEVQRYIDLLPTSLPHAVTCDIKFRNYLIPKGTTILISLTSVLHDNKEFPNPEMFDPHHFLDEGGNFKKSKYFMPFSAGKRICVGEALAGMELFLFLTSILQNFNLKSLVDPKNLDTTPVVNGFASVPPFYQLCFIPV", "test": "Inhibition of CYP2C9 in human liver microsomes using tolbutamide as substrate preincubated for 5 mins followed by NADPH addition and measured after 10 mins by LC-MS/MS analysis", "format": "ADME, Microsome"}, "[10]": {"test": "Cmax in Sprague-Dawley rat at 5 mg/kg, po or 5 mg/kg, iv measured after 24 hrs by LC-MS/MS analysis", "format": "ADME, organism-based", "conditions": "in vivo"}, "HGC-27 [11]": {"tested_on": "HGC-27", "test": "Inhibition of AKT-mTOR signaling in human HGC-27 cells assessed as decrease in phosphorylated mTOR expression at 5 to 15 uM incubated for 48 hrs by Western blot analysis", "format": "cell-based", "conditions": "dose 5-15 µM"}, "[12]": {"test": "Toxicity in female BALB/c nude mouse model xenografted with human HGC-27 cells assessed as body weight loss at 30 mg/kg, ip administered for 21 days", "format": "organism-based", "conditions": "in vivo, 504 h, time 21 day"}, "[13]": {"test": "Oral bioavailability in Sprague-Dawley rat at 5 mg/kg measured after 24 hrs by LC-MS/MS analysis", "format": "ADME, organism-based", "conditions": "in vivo"}, "MGC-803 [14]": {"tested_on": "MGC-803", "test": "Induction of autophagy in human MGC-803 cells assessed as increase in LC3B protein expression incubated for 48 hrs by Western blot analysis", "format": "functional, cell-based", "conditions": "dose 10-20 µM"}, "[15]": {"test": "Metabolic stability in human liver microsomes assessed as intrinsic clearance at 100 uM measured upto 60 mins in presence of NADPH by LC-MS/MS analysis", "format": "ADME, Microsome", "conditions": "read-out: CLH"}, "HeLa": {"tested_on": "HeLa", "test": "Anticancer activity against human HeLa cells assessed as inhibition of cell proliferation incubated for 72 hrs by MTT assay", "format": "functional, cell-based"}, "[16]": {"molecular_target": "Receptor tyrosine-protein kinase erbB-4 (Homo sapiens, UniProt Q15303)", "sequence (Q15303 whole entry)": "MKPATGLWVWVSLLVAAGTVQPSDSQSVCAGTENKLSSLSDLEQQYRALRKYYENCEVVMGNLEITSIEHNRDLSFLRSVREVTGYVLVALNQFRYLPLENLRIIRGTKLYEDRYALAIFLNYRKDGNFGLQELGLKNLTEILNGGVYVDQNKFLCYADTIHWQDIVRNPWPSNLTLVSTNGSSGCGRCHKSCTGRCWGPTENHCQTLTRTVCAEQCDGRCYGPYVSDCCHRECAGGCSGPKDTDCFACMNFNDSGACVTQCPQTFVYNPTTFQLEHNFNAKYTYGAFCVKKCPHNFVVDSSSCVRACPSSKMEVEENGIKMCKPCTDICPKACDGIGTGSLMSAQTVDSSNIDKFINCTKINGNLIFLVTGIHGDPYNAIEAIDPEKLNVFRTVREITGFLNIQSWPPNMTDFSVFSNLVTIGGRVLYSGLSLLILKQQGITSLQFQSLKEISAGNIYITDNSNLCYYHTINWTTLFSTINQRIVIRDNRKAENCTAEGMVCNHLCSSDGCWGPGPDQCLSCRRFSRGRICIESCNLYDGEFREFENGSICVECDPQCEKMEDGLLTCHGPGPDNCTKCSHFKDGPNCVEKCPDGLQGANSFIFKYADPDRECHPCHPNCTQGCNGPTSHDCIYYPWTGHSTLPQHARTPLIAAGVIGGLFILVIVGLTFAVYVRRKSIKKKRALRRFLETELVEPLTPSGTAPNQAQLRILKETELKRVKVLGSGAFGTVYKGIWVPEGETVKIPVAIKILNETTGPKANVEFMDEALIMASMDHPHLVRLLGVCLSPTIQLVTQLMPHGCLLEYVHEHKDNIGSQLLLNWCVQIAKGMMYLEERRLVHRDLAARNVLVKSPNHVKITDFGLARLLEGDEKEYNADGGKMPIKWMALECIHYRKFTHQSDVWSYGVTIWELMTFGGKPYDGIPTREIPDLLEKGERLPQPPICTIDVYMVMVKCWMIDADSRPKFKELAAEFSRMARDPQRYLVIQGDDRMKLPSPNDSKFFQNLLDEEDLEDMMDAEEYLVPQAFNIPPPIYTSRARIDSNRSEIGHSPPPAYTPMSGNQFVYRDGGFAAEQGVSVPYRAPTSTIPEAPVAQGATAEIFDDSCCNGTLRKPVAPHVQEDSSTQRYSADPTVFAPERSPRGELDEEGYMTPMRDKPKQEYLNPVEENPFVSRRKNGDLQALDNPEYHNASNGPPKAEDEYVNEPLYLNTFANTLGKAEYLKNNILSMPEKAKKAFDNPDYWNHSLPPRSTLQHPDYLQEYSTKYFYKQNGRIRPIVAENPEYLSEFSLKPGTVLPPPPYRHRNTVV", "test": "Inhibition of HER4 (unknown origin) in presence of ATP at Km concentration"}, "[17]": {"molecular_target": "Tyrosine-protein kinase JAK3 (Homo sapiens, UniProt P52333)", "sequence (P52333 whole entry)": "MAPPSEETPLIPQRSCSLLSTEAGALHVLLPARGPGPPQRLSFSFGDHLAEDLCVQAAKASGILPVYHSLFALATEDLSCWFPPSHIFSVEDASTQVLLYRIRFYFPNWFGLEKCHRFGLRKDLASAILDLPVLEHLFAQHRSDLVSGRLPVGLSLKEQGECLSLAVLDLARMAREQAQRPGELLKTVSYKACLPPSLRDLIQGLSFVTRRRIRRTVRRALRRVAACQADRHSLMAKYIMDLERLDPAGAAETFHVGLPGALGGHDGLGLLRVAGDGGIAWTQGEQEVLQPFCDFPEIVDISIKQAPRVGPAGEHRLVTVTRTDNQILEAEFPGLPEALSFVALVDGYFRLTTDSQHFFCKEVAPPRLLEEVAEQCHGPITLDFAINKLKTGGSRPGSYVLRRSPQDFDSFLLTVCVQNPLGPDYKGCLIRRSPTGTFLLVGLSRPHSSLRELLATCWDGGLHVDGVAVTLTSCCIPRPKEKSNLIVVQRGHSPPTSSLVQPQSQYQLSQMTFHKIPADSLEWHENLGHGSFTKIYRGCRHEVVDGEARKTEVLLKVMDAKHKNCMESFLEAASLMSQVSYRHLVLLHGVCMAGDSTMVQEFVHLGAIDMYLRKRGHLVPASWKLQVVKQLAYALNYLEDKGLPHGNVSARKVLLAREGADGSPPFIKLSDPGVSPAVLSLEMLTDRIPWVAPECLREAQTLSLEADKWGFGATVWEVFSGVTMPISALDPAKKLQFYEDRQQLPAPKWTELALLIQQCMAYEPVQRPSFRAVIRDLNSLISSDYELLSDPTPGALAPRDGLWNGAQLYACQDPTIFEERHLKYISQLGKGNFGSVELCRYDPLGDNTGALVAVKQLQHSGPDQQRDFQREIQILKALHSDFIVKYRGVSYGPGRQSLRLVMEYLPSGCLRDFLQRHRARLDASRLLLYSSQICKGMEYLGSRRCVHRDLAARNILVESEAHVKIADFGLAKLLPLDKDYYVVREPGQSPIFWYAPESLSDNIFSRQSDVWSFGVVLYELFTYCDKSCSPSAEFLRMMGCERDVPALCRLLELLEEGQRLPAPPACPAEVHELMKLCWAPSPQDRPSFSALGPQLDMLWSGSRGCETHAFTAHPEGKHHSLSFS", "test": "Inhibition of JAK3 (unknown origin) in presence of ATP at Km concentration"}, "HGC-27 [18]": {"tested_on": "HGC-27", "test": "Induction of autophagy in human HGC-27 cells assessed as decrease in p62 protein expression incubated for 48 hrs by Western blot analysis", "format": "functional, cell-based", "conditions": "dose 5-15 µM"}, "HGC-27 [19]": {"tested_on": "HGC-27", "test": "Anti-invasive activity in human HGC-27 cells assessed as decrease in invasion ability at 5 to 15 uM incubated for 48 hrs by transwell assay", "format": "functional, cell-based", "conditions": "dose 5-15 µM"}, "HGC-27 [20]": {"tested_on": "HGC-27", "test": "Antitumor activity against human HGC-27 cells xenografted in female BALB/c nude mouse model assessed as reduction in tumor weight at 30 mg/kg/day, ip administered for 21 days", "format": "functional, organism-based", "conditions": "time 21.0 day"}, "NCI-H460": {"tested_on": "NCI-H460", "test": "cells", "conditions": "Homo sapiens, NCI-H460, 72 h", "description": "Anticancer activity against human NCI-H460 cells assessed as inhibition of cell proliferation incubated for 72 hrs by MTT assay"}, "MGC-803 [21]": {"tested_on": "MGC-803", "test": "Induction of apoptosis in LC3B knockout human MGC-803 cells assessed as increase in cleaved caspase 9 level at 20 uM by Western blot analysis", "format": "functional, cell-based"}, "[22]": {"test": "Toxicity in female BALB/c nude mouse model xenografted with human HGC-27 cells assessed as effect on liver at 30 mg/kg, ip administered for 21 days by H and E staining based analysis", "format": "organism-based", "conditions": "in vivo, 504 h, time 21 day"}, "[23]": {"test": "Metabolic stability in rat liver microsomes assessed as intrinsic clearance at 100 uM measured upto 60 mins in presence of NADPH by LC-MS/MS analysis", "format": "ADME, Microsome", "conditions": "read-out: CLH"}, "[24]": {"molecular_target": "Epidermal growth factor receptor (Homo sapiens, UniProt P00533)", "test": "Inhibition of EGFR (unknown origin) in presence of ATP at Km concentration"}, "[25]": {"test": "Cytotoxicity against human L02 cells assessed as inhibition of cell proliferation incubated for 72 hrs by MTT assay", "format": "toxicity, cell-based"}, "MCF7": {"tested_on": "MCF7", "test": "Anticancer activity against human MCF7 cells assessed as inhibition of cell proliferation incubated for 72 hrs by MTT assay", "format": "functional, cell-based", "conditions": "MCF7, 72 h"}, "Cytochrome P450 2D6": {"molecular_target": "Cytochrome P450 2D6 (Homo sapiens, UniProt P10635)", "test": "Inhibition of CYP2D6 in human liver microsomes using dextromethorphan as substrate preincubated for 5 mins followed by NADPH addition and measured after 10 mins by LC-MS/MS analysis", "format": "ADME, Microsome"}, "[26]": {"test": "Toxicity in female BALB/c nude mouse model xenografted with human HGC-27 cells assessed as effect on lung at 30 mg/kg, ip administered for 21 days by H and E staining based analysis", "format": "organism-based", "conditions": "in vivo, 504 h, time 21 day"}, "HGC-27 [27]": {"tested_on": "HGC-27", "test": "cells", "conditions": "Homo sapiens, HGC-27, 48 h", "description": "Antiproliferative activity against human HGC-27 cells assessed as inhibition of cell viability incubated for 48 hrs by MTT assay"}, "MGC-803 [28]": {"tested_on": "MGC-803", "test": "Anticancer activity against human MGC-803 cells assessed as inhibition of cell proliferation incubated for 72 hrs by MTT assay", "format": "functional, cell-based", "conditions": "MGC-803, 72 h"}, "[29]": {"test": "Cytotoxicity against human GES1 cells assessed as inhibition of cell proliferation incubated for 72 hrs by MTT assay", "format": "toxicity, cell-based"}, "MGC-803 [30]": {"tested_on": "MGC-803", "test": "Antiproliferative activity against human MGC-803 cells assessed as inhibition of cell viability incubated for 24 to 72 hrs by MTT assay", "format": "functional, cell-based", "conditions": "dose <= 50.0 µM, time 24-72 hrs"}}, "note": "Activity calls are given as the source filed them. No cut-off for these calls is given here.", "data": [{"smiles": "C=CS(=O)(=O)N1CCC[C@@H](Nc2nc(N)nc(Nc3cccc(Oc4ccccc4)c3)n2)C1", "values": [{"measurement": "IC50", "setting": "PC-9", "value": 23.3, "unit": "µM"}, {"measurement": "IC50", "setting": "HONE1 cell line", "value": 15.7, "unit": "µM"}, {"measurement": "IC50", "setting": "MGC-803 [1]", "value": 15.2, "unit": "µM"}, {"measurement": "Activity", "setting": "MGC-803 [2]", "value": "Dose-dependent-effect"}, {"measurement": "IC50", "setting": "NCI-H1975", "value": 5, "unit": "µM"}, {"measurement": "IC50", "setting": "HCC827", "value": 5.7, "unit": "µM"}, {"measurement": "inhibition", "setting": "MGC-803 [3]", "value": "Active"}, {"measurement": "IC50", "setting": "[4]", "value": 0.177, "unit": "µM"}, {"measurement": "IC50", "setting": "[5]", "value": 0.187, "unit": "µM"}, {"measurement": "Activity", "setting": "MGC-803 [6]", "value": "Dose-dependent-effect"}, {"measurement": "Activity", "setting": "MGC-803 [7]", "value": "Dose-dependent-effect"}, {"measurement": "Activity", "setting": "MGC-803 [8]", "value": "Active"}, {"measurement": "IC50", "setting": "C6661", "value": 14.9, "unit": "µM"}, {"measurement": "IC50", "setting": "[9]", "value": "> 1", "unit": "µM"}, {"measurement": "IC50", "setting": "Cytochrome P450 2C9", "value": 16.8, "unit": "µM"}, {"measurement": "Cmax", "setting": "[10]", "value": 73.5, "unit": "ng/mL"}, {"measurement": "inhibition", "setting": "HGC-27 [11]", "value": "Active"}, {"measurement": "Activity", "setting": "[12]", "value": "Non-toxic"}, {"measurement": "bioavailability", "setting": "[13]", "value": 6.6, "unit": "%"}, {"measurement": "Activity", "setting": "MGC-803 [14]", "value": "Dose-dependent-effect"}, {"measurement": "microsomal CLint at 100 µM", "setting": "[15]", "value": 214, "unit": "µL/min/mg"}, {"measurement": "IC50", "setting": "HeLa", "value": 6.5, "unit": "µM"}, {"measurement": "IC50", "setting": "[16]", "value": "> 1", "unit": "µM"}, {"measurement": "IC50", "setting": "[17]", "value": 0.437, "unit": "µM"}, {"measurement": "Activity", "setting": "HGC-27 [18]", "value": "Dose-dependent-effect"}, {"measurement": "Activity", "setting": "HGC-27 [19]", "value": "Active"}, {"measurement": "Activity", "setting": "HGC-27 [20]", "value": "Active"}, {"measurement": "IC50", "setting": "NCI-H460", "value": 16.7, "unit": "µM"}, {"measurement": "Activity", "setting": "MGC-803 [21]", "value": "Active"}, {"measurement": "Activity", "setting": "[22]", "value": "Non-toxic"}, {"measurement": "microsomal CLint at 100 µM", "setting": "[23]", "value": 304, "unit": "µL/min/mg"}, {"measurement": "IC50", "setting": "[24]", "value": 0.468, "unit": "µM"}, {"measurement": "IC50 at 72 h", "setting": "[25]", "value": "> 32", "unit": "µM"}, {"measurement": "IC50", "setting": "MCF7", "value": 8.3, "unit": "µM"}, {"measurement": "IC50", "setting": "Cytochrome P450 2D6", "value": 82, "unit": "µM"}, {"measurement": "Activity", "setting": "[26]", "value": "Non-toxic"}, {"measurement": "IC50", "setting": "HGC-27 [27]", "value": 10.5, "unit": "µM"}, {"measurement": "IC50", "setting": "MGC-803 [28]", "value": 14.4, "unit": "µM"}, {"measurement": "IC50 at 72 h", "setting": "[29]", "value": 21.2, "unit": "µM"}, {"measurement": "Activity", "setting": "MGC-803 [30]", "value": "Dose-dependent-effect"}]}]}
